From patent publication US20090270416A1, “N-OXIDES OF DIARYLUREA DERIVATIVES AND THEIR USE AS Chk1 INHIBITORS FOR THE TREATMENT OF CANCER” (SENTINEL ONCOLOGY LIMITED, priority 2006, published 2009)

Tests used:
[1] = target: T1, CHK1 (h) (Homo sapiens, UniProt O14757); experiment: Chk-1 kinase inhibiting activity (Upstate radiometric assay); assay type: biochemical
T1 construct: purchased Upstate Ltd (assay run at Upstate)
T1 sequence (O14757 1-476): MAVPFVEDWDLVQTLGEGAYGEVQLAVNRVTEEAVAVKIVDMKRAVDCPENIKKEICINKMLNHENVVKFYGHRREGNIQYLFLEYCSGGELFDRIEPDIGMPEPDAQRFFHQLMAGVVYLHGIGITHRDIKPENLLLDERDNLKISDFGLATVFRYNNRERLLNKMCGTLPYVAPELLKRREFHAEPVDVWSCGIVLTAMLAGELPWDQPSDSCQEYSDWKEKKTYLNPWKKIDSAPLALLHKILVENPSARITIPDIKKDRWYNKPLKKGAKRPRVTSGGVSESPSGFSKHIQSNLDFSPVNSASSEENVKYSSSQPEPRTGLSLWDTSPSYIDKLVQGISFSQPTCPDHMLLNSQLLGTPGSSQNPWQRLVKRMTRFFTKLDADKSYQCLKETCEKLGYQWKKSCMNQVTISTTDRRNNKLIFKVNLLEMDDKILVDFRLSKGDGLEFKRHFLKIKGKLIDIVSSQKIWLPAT
Description: The N-oxide compounds of the invention and their tertiary amine precursors were tested for activity against the Chk-1 kinase.
The Chk-1 assay was conducted at Upstate Ltd, Gemini Crescent, Dundee Technology Park, Dundee, DD2 1 SW, UK in accordance with the protocol set out below. In a final reaction volume of 25 μl, CHK1 (h) (5-10 mU) is incubated with 8 mM MOPS pH 7.0, 0.2 mM EDTA, 200 μM […], 10 mM MgAcetate and γ-33P-ATP] (specific activity approx. 500 cpm/pmol, concentration as required). The reaction is initiated by the addition of the MgATP mix. After incubation for 40 minutes at room temperature, the reaction is stopped by the addition of 5 μl of a 3% phosphoric acid solution. 10 μl of the reaction mixture is then spotted onto a P30 filtermat and washed three times for 5 minutes in 75 mM phosphoric acid and once in methanol prior to drying and scintillation counting.

[2] = target: T2, human potassium channel hERG (Homo sapiens, UniProt Q12809); experiment: hERG binding activity ([3H] astemizole displacement, HEK-293 membranes); settings: 1.5 nM [3H] astemizole; for IC50: 60 minutes at 25° C.; for HERG Binding % @ 100 uM (extent of binding): @ 100 uM test compound
T2 construct: expressed in transfected cells; host or cells: HEK-293
T2 sequence (Q12809 whole entry): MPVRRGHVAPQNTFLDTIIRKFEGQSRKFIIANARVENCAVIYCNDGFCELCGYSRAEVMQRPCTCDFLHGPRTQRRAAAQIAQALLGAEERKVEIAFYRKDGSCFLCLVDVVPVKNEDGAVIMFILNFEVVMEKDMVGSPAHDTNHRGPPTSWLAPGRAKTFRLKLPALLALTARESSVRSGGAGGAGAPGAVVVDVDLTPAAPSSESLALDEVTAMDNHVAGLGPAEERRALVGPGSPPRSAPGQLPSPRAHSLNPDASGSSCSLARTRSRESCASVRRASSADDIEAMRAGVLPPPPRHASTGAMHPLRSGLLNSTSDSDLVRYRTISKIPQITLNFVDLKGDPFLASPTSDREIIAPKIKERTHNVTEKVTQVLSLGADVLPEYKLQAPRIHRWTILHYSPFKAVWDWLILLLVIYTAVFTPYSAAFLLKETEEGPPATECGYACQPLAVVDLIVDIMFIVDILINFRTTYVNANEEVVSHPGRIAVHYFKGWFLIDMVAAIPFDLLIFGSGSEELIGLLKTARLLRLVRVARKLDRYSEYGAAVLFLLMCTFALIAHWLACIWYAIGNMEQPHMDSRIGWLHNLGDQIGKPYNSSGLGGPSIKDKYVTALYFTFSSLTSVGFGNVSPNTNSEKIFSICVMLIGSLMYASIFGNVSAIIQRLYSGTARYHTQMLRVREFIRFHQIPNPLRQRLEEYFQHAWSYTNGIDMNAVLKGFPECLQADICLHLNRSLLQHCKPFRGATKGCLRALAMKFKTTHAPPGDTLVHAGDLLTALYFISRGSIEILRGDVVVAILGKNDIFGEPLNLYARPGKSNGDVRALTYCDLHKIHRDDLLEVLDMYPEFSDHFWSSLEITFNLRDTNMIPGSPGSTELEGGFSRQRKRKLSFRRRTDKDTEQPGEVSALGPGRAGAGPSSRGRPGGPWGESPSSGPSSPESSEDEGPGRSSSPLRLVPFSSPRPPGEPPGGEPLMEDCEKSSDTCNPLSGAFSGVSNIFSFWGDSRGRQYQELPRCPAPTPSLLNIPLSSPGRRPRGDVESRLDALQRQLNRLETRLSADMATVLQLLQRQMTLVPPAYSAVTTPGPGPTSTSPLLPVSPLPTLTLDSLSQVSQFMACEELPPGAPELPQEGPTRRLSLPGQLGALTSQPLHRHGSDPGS
Description: The abilities of the N-oxide compounds of the invention and their tertiary amine precursors were tested using the assay described below.
Human recombinant HEK-293 cells stably transfected with a plasmid encoding the human potassium channel hERG were used to prepare membranes in modified HEPES pH 7.4 buffer using standard techniques. A 10 μg aliquot of membrane was incubated with 1.5 nM [^3H] astemizole in the presence of varying concentrations of test compound for 60 minutes at 25° C. The membranes were then filtered and washed three times and the filters were counted to determine the [^3H] astemizole specifically bound. From the counts, the extent of binding of the test compound and, in some cases, the IC50 values of the test compounds, were determined.

[3] = target: T3, hERG potassium channel (Homo sapiens, UniProt Q12809); experiment: Functional hERG assay (patch clamp, HEK-293 cells); assay type: cell-based; settings: 5-point dose response, triplicate
T3 construct: expressed in transfected cells; host or cells: HEK-293
T3 sequence (Q12809 whole entry): as above
Description: The N-oxide compounds of the invention and their tertiary amine precursors were each tested for hERG inhibiting activity using the method of Zhou Z, Gong Q, Ye B, Fan Z, Makielski J C, Robertson G A, January C T. Biophys J. 1998 January; 74(1):230-41.
Test compounds were tested in triplicate in a 5-point dose response curve on HEK-293 cells stably expressing the hERG potassium channel. Potassium current was measured using the patch clamp technique on a Molecular Devices Patch Express 7000. hERG channels were activated by 2 second pulses to +20 mV from a holding potential of −80 mV, and peak tail currents were recorded upon repolarization to −50 mV. This voltage-clamp pulse protocol was performed continuously during the experiment (vehicle control, test compound, washout, and positive control additions). An interpulse interval of 15 seconds allowed recovery from any residual inactivation. Test compounds were incubated with cells between 3-8 minutes until the current reached a steady state level, defined by a Standard Deviation of 0.01. After the final test compound concentration was tested, test compound was washed out with continuous perfusion of extracellular solution for 3 minutes, followed by application of positive control (10 μM Cisparide).
Test compounds were diluted in 100% DMSO at 1000× the highest concentration to be tested, vortexed, and sonicated. Visual inspection determined that compounds were completely solubilized. Test compounds were then diluted into glass vials in 100% DMSO for all test concentrations at 1000× the final concentration to be tested and vortexed. Test compounds were then diluted 1:1000 into extracellular solution and vortexed to achieve final concentration for testing. Final DMSO concentration was 0.1% for all concentrations of test compounds, Vehicle (negative) control, and Cisapride (positive) control in extracellular solution. The compositions of the solutions used were as follows:
Intracellular Soln (mM): KCl 130, EDTA 5, MgCl2 5, HEPES10, Na-ATP 5, pH=7.2 Extracellular Soln (mM): NaCl 137, KCl 4, CaCl2 1.8, MgCl2 1, Dextrose 11, HEPES 10, pH=7.4

[4] = target: T4, Aurora-A(h) (Homo sapiens, UniProt O14965); experiment: Kinase selectivity screen (Upstate); assay type: biochemical; settings: 10 μM compound; ATP 15 μM; N = 2
T4 construct: purchased Upstate
T4 sequence (O14965 whole entry): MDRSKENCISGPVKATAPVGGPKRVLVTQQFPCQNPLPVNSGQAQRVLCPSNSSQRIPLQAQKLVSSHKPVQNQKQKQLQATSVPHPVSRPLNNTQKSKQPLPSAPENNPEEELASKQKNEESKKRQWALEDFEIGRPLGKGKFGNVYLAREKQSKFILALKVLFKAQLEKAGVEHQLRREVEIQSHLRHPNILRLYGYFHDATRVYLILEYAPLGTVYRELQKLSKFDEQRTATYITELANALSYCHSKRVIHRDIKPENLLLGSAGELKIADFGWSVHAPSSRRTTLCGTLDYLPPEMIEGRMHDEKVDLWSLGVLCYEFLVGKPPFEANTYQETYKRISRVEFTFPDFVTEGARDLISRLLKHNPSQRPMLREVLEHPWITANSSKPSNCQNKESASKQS
Description: (§1) The compound of Example 1F was tested (Upstate) against a number of other kinases and the results are set out in Table 5 below.

[5] = target: T5, CDK2/cyclinE(h) (Homo sapiens, UniProt P24941); experiment: Kinase selectivity screen (Upstate); assay type: biochemical; settings: 10 μM compound; ATP 120 μM; N = 2
T5 construct: purchased Upstate
Description: as §1

[6] = target: T6, CHK2(h) (Homo sapiens, UniProt O96017); experiment: Kinase selectivity screen (Upstate); assay type: biochemical; settings: 10 μM compound; ATP 70 μM; N = 2
T6 construct: purchased Upstate
Description: as §1

[7] = target: T7, EGFR(h) (Homo sapiens, UniProt P00533); experiment: Kinase selectivity screen (Upstate); assay type: biochemical; settings: 10 μM compound; ATP 10 μM; N = 2
T7 construct: purchased Upstate
Description: as §1

[8] = target: T8, FGFR1(h) (Homo sapiens, UniProt P11362); experiment: Kinase selectivity screen (Upstate); assay type: biochemical; settings: 10 μM compound; ATP 200 μM; N = 2
T8 construct: purchased Upstate
Description: as §1

[9] = target: T9, Flt3(h) (Homo sapiens, UniProt P36888); experiment: Kinase selectivity screen (Upstate); assay type: biochemical; settings: 10 μM compound; ATP 200 μM; N = 2
T9 construct: purchased Upstate
Description: as §1

[10] = target: T10, Fms(h) (Homo sapiens, UniProt P07333); experiment: Kinase selectivity screen (Upstate); assay type: biochemical; settings: 10 μM compound; ATP 200 μM; N = 2
T10 construct: purchased Upstate
Description: as §1

[11] = target: T11, IGF-1R(h) (Homo sapiens, UniProt P08069); experiment: Kinase selectivity screen (Upstate); assay type: biochemical; settings: 10 μM compound; ATP 200 μM; N = 2
T11 construct: purchased Upstate
Description: as §1

[12] = target: T12, JNK1α1(h) (Homo sapiens, UniProt P45983); experiment: Kinase selectivity screen (Upstate); assay type: biochemical; settings: 10 μM compound; ATP 45 μM; N = 2
T12 construct: purchased Upstate
Description: as §1

[13] = target: T13, KDR(h) (Homo sapiens, UniProt P35968); experiment: Kinase selectivity screen (Upstate); assay type: biochemical; settings: 10 μM compound; ATP 90 μM; N = 2
T13 construct: purchased Upstate
Description: as §1

[14] = target: T14, MAPK2(h) (Homo sapiens, UniProt P28482); experiment: Kinase selectivity screen (Upstate); assay type: biochemical; settings: 10 μM compound; ATP 155 μM; N = 2
T14 construct: purchased Upstate
T14 sequence (P28482 whole entry): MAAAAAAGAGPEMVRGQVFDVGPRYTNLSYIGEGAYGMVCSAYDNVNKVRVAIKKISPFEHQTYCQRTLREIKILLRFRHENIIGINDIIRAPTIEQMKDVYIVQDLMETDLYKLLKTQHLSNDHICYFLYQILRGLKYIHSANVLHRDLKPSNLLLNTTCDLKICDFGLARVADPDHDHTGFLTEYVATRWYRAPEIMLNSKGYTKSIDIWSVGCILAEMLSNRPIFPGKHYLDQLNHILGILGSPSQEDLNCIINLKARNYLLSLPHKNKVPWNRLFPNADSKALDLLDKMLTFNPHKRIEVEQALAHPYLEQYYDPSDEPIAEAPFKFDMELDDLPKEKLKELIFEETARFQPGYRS
Description: as §1

[15] = target: T15, MEK1(h) (Homo sapiens, UniProt Q02750); experiment: Kinase selectivity screen (Upstate); assay type: biochemical; settings: 10 μM compound; ATP 10 μM; N = 2
T15 construct: purchased Upstate
Description: as §1

[16] = target: T16, NEK2(h) (Homo sapiens, UniProt P51955); experiment: Kinase selectivity screen (Upstate); assay type: biochemical; settings: 10 μM compound; ATP 120 μM; N = 2
T16 construct: purchased Upstate
T16 sequence (P51955 whole entry): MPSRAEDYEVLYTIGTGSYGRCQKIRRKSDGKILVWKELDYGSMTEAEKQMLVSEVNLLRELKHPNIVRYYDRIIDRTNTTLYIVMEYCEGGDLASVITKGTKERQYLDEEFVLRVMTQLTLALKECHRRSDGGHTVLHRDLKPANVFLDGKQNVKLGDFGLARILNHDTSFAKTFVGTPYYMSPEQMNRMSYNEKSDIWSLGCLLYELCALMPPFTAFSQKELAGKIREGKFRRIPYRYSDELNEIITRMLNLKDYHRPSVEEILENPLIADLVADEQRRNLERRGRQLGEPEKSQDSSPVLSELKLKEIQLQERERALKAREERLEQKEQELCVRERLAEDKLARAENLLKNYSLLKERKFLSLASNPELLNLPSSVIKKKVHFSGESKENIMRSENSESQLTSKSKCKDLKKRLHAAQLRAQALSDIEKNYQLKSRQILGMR
Description: as §1

[17] = target: T17, PDGFRβ(h) (Homo sapiens, UniProt P09619); experiment: Kinase selectivity screen (Upstate); assay type: biochemical; settings: 10 μM compound; ATP 200 μM; N = 2
T17 construct: purchased Upstate
Description: as §1

[18] = target: T18, PKA(h) (Homo sapiens, UniProt P17612); experiment: Kinase selectivity screen (Upstate); assay type: biochemical; settings: 10 μM compound; ATP 10 μM; N = 2
T18 construct: purchased Upstate
Description: as §1

[19] = target: T19, PKCθ(h) (Homo sapiens, UniProt Q04759); experiment: Kinase selectivity screen (Upstate); assay type: biochemical; settings: 10 μM compound; ATP 15 μM; N = 2
T19 construct: purchased Upstate
T19 sequence (Q04759 whole entry): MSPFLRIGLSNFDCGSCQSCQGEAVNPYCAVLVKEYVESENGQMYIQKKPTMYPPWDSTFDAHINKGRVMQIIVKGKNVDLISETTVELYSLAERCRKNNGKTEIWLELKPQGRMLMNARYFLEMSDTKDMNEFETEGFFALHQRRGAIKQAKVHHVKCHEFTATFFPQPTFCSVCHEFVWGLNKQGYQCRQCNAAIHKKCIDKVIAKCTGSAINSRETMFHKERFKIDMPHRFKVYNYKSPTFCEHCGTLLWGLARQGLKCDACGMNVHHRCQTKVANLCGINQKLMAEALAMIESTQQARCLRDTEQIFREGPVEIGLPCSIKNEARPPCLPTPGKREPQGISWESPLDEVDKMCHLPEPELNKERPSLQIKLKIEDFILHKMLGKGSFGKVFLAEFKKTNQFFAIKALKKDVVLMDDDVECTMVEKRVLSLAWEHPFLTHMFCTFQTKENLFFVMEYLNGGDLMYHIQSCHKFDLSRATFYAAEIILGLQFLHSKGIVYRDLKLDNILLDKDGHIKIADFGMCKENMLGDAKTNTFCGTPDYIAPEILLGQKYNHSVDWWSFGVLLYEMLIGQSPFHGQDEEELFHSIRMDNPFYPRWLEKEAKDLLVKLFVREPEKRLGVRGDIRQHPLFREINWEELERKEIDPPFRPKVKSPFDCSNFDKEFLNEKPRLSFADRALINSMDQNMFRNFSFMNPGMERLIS
Description: as §1

[20] = target: T20, Pim-1(h) (Homo sapiens, UniProt P11309); experiment: Kinase selectivity screen (Upstate); assay type: biochemical; settings: 10 μM compound; ATP 90 μM; N = 2
T20 construct: purchased Upstate
Description: as §1

[21] = target: T21, Tie2(h) (Homo sapiens, UniProt Q02763); experiment: Kinase selectivity screen (Upstate); assay type: biochemical; settings: 10 μM compound; ATP 200 μM; N = 2
T21 construct: purchased Upstate
Description: as §1

[22] = target: T22, Yes(h) (Homo sapiens, UniProt P07947); experiment: Kinase selectivity screen (Upstate); assay type: biochemical; settings: 10 μM compound; ATP 45 μM; N = 2
T22 construct: purchased Upstate
T22 sequence (P07947 whole entry): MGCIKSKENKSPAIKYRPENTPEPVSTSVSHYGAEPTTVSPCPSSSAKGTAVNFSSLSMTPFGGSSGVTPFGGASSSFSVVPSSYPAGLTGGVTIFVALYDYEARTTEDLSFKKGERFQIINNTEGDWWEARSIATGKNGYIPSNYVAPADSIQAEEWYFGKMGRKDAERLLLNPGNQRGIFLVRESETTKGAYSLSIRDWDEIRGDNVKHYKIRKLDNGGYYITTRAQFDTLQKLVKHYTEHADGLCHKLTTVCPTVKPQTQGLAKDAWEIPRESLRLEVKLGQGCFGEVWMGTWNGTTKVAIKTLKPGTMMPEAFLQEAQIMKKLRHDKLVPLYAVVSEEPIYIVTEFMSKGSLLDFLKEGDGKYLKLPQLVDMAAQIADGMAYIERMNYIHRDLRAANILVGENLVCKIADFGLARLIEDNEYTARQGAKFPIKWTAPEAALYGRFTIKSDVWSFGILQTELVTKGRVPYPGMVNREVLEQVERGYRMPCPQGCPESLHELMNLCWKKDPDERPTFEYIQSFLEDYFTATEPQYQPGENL
Description: as §1

[23] = target: T23, ZAP-70(h) (Homo sapiens, UniProt P43403); experiment: Kinase selectivity screen (Upstate); assay type: biochemical; settings: 10 μM compound; ATP 15 μM; N = 2
T23 construct: purchased Upstate
Description: as §1

[24] = target: T24, cKit(h) (Homo sapiens, UniProt P10721); experiment: Kinase selectivity screen (Upstate); assay type: biochemical; settings: 10 μM compound; ATP 200 μM; N = 2
T24 construct: purchased Upstate
Description: as §1

[25] = target: T25, cSRC(h) (Homo sapiens, UniProt P12931); experiment: Kinase selectivity screen (Upstate); assay type: biochemical; settings: 10 μM compound; ATP 200 μM; N = 2
T25 construct: purchased Upstate
Description: as §1

[26] = test system: other kinases; experiment: Kinase selectivity screen (Upstate), panel as a whole; assay type: biochemical, human; settings: 10 μM compound; summary of Table 5
Description: as §1

## CN(C)CCCOc1ccc(Cl)cc1NC(=O)Nc1cnccn1 [Example 1C, 1-[5-Chloro-2-(3-dimethyloxyamino-propoxy)-phenyl]-3-pyrazin-2-yl-urea]
[1]
  IC50: 41 nM
[2]
  IC50: 5030 nM
[3]
  IC50: 108 nM

## C[N+](C)([O-])CCCOc1ccc(Cl)cc1NC(=O)Nc1cnccn1 [Example 1F]
[1]
  IC50: 71 nM
[2]
  HERG Binding % @ 100 uM (extent of binding): 35% @ 100 uM
[3]
  IC50: 26700 nM
[4]
  inhibition at 10 µM: 14%
[5]
  inhibition at 10 µM: 0%
[6]
  inhibition at 10 µM: 71%
[7]
  inhibition at 10 µM: 0%
[8]
  inhibition at 10 µM: 92%
[9]
  inhibition at 10 µM: 73%
[10]
  inhibition at 10 µM: 12%
[11]
  inhibition at 10 µM: 36%
[12]
  inhibition at 10 µM: 0%
[13]
  inhibition at 10 µM: 38%
[14]
  inhibition at 10 µM: 0%
[15]
  inhibition at 10 µM: 0%
[16]
  inhibition at 10 µM: 0%
[17]
  inhibition at 10 µM: 1%
[18]
  inhibition at 10 µM: 0%
[19]
  inhibition at 10 µM: 37%
[20]
  inhibition at 10 µM: 0%
[21]
  inhibition at 10 µM: 11%
[22]
  inhibition at 10 µM: 0%
[23]
  inhibition at 10 µM: 5%
[24]
  inhibition at 10 µM: 0%
[25]
  inhibition at 10 µM: 11%
[26]
  activity against most other kinases apart from CHK2, FGFR1 and Flt3: largely inactive or only poorly active

## Cc1cnc(NC(=O)Nc2cc(Cl)ccc2OCCCN(C)C)cn1 [Example 2B, 1-[5-Chloro-2-(3-dimethylamino-propoxy)-phenyl]-3-(5-methyl-pyrazin-2-yl)-urea]
[1]
  IC50: 51 nM
[2]
  IC50: 2980 nM
[3]
  IC50: 610 nM

## Cc1cnc(NC(=O)Nc2cc(Cl)ccc2OCCC[N+](C)(C)[O-])cn1 [Example 2C, 1-[5-Chloro-2-(3-dimethyloxyamino-propoxy)-phenyl]-3-(5-methyl-pyrazin-2-yl)-urea]
[1]
  IC50: 128 nM
[2]
  HERG Binding % @ 100 uM (extent of binding): 3% @ 100 uM
[3]
  IC50: > 30000 nM

## CN(C)CCCOc1ccc(Cl)cc1NC(=O)Nc1cnc(C#N)cn1 [Example 3B, 1-[5-Chloro-2-(3-dimethylamino-propoxy)-phenyl]-3-(5-cyano-pyrazin-2-yl)-urea]
[1]
  IC50: < 10 nM
[2]
  IC50: 5120 nM
[3]
  IC50: 435 nM

## C[N+](C)([O-])CCCOc1ccc(Cl)cc1NC(=O)Nc1cnc(C#N)cn1 [Example 3C, 1-[5-Chloro-2-(3-dimethyloxyamino-propoxy)-phenyl]-3-(5-cyano-pyrazin-2-yl)-urea]
[1]
  IC50: 24 nM
[2]
  HERG Binding % @ 100 uM (extent of binding): 46% @ 100 uM
[3]
  IC50: 16300 nM

## CN(C)CCCOc1ccc(Cl)cc1NC(=O)Nc1ccc(C#N)cn1 [Example 4B, 1-[5-Chloro-2-(3-dimethylamino-propoxy)-phenyl]-3-(5-cyano-pyridin-2-yl)-urea]
[1]
  IC50: 279 nM
[2]
  IC50: 445 nM
[3]
  IC50: 130 nM

## C[N+](C)([O-])CCCOc1ccc(Cl)cc1NC(=O)Nc1ccc(C#N)cn1 [Example 4C, 1-[5-Chloro-2-(3-dimethyloxylamino-propoxy)-phenyl]-3-(5-cyano-pyridin-2-yl)-urea]
[1]
  IC50: 581 nM
[2]
  IC50: 7670 nM
[3]
  IC50: 2440 nM
